pIC50: −log10 of the molar value. Where “and” joins values, the source holds several entries; their conditions need not be identical. Identical values can stand only once.
Test system: 885724-159-R-J1-PDC complex spheroid viability
Assay: Anticancer human tumor 885724-159-R-J1-PDC patient-derived pancreatic adenocarcinoma cell line growth inhibition [GQUAD]
Conditions: for viability, T/C: stronger effect = lower value
Source text: DNA G-quadruplex Stabilizer Agents in Combinations in Complex Spheroids
A high-throughput screen of multi-cell type tumor spheroids was designed to identify active combinations of DNA G-quadruplex stabilizer agents and targeted small molecules. Complex spheroids include a stromal component modeled by human endothelial cells (HUVEC) and fibroblasts modeled by human mesenchymal stem cells (MSCs). The concentration ranges selected for each drug and investigational agent were based upon clinically achievable concentrations if the clinical Cmax of the agent was known.
Compounds. The drugs and investigational agents: pidnarulex (CX-5461; NSC782164), APTO-253 (NSC789042), BRACO-19 (NSC847499), peposertib (NSC802822), ceralasertib (NSC780249), elimusertib (NSC800525), camonsertib (NSC841442), AZD-1390 (NSC803789), olaparib (NSC753686), talazoparib (NSC767125), ART-558 (NSC835418), sotorasib (NSC818433), MRTX-1133 (NSC836407), SN-38 (NSC673596), topotecan (NSC609699), etoposide (NSC141540), doxorubicin (NSC123127), gemcitabine (NSC613327), 5-fluorouracil (NSC19893), paclitaxel (NSC125973), vemurafenib (NSC761431), panobinostat (NSC761190), R-306465 (JNJ-16241199; NSC773264), adavosertib (NSC754352), TP-3654 (NSC805149), carboplatin (NSC241240), KSQ-4279 (NSC840948), and staurosporine (NSC755774) were obtained from the National Cancer Institute (NCI) Developmental Therapeutics Program Chemical Repository (34). The FDA-approved anticancer drug set is available from the NCI Developmental Therapeutics Program. […] The stock solutions were prepared in dimethyl sulfoxide (DMSO, Sigma-Aldrich, St. Louis, MO, cat. D2650) at 800-fold the tested concentration and stored at -70 degrees C prior to their use. All drugs and investigational agents were tested over a range starting from a high concentration at or near the clinical Cmax and decreasing in half-log increments. If the clinical Cmax for an agent had not been determined, the highest concentration tested was 10 microM.
2.3 Cell Culture. All cells were maintained in an incubator at 37 degrees C and 5% CO2 with 95% humidity. The PDC lines were cultured according to standard operating procedures established by the NCI PDMR. All PDCs were thawed and cultured in Matrigel-coated flasks prepared with a working solution of 1X Ham's F-12 nutrient mix, without supplementation (Invitrogen, cat. 11765054), 100 U/mL penicillin-streptomycin (Invitrogen, cat. 15140122), and 2.5% Matrigel (Corning Inc., cat. 354248) for the first three passages. The 857933-349-R-J2-PDC line was cultured in 6C/Colon 1B media, which includes advanced DMEM/F-12 (Thermo Fisher Scientific, cat. 12634028), 10 mM HEPES (Thermo Fisher Scientific, cat. 15630080), 1X GlutaMAX supplement (Thermo Fisher Scientific, cat. 35050061), 0.1 mg/mL primocin (InvivoGen, cat. ant-pm-2), 10% defined fetal bovine serum, heat inactivated (HyClone Laboratories Inc., cat. SH30070.03HI), 50% L-WRN conditioned media (ATCC, cat. CRL-3276), 1.25 mM N-Acetyl-L-cysteine (Sigma-Aldrich, cat. A9165), 10 mM nicotinamide (Sigma-Aldrich, cat. N0636), 1X B-27 supplement (Thermo Fisher Scientific, cat. 17504044), 1X N-2 supplement (Thermo Fisher Scientific, cat. 17502048), 10 microM Y-27632 dihydrochloride (Tocris Bioscience, cat. 1254), and 50 ng/mL human EGF recombinant protein (Thermo Fisher Scientific, cat. PHG0311). The 485176-168-R4-J1-PDC line was cultured in Panc media, which includes all 6C/Colon 1B media components plus 100 ng/mL human FGF-10 (Thermo Fisher Scientific, cat. 100-26), 500 nM SB-431542 (Selleckchem, cat. S1067), and gastrin (Tocris, cat. 3006).
[…]

[1] = curve of first compound, second compound 0.0316 µM
[2] = curve of first compound, second compound 0.1 µM
[3] = curve of first compound, second compound 0.316 µM
[4] = curve of first compound, second compound 1 µM
[5] = curve of first compound, second compound 3.16 µM
[6] = curve of first compound, second compound 10 µM
[7] = second compound 0.0316 µM, first compound 0.0316 µM
[8] = second compound 0.0316 µM, first compound 0.1 µM
[9] = second compound 0.0316 µM, first compound 0.316 µM
[10] = second compound 0.0316 µM, first compound 1 µM
[11] = second compound 0.0316 µM, first compound 3.16 µM
[12] = second compound 0.0316 µM, first compound 10 µM
[13] = second compound 0.1 µM, first compound 0.0316 µM
[14] = second compound 0.1 µM, first compound 0.1 µM
[15] = second compound 0.1 µM, first compound 0.316 µM
[16] = second compound 0.1 µM, first compound 1 µM
[17] = second compound 0.1 µM, first compound 3.16 µM
[18] = second compound 0.1 µM, first compound 10 µM
[19] = second compound 0.316 µM, first compound 0.0316 µM
[20] = second compound 0.316 µM, first compound 0.1 µM
[21] = second compound 0.316 µM, first compound 0.316 µM
[22] = second compound 0.316 µM, first compound 1 µM
[23] = second compound 0.316 µM, first compound 3.16 µM
[24] = second compound 0.316 µM, first compound 10 µM
[25] = second compound 1 µM, first compound 0.0316 µM
[26] = second compound 1 µM, first compound 0.1 µM
[27] = second compound 1 µM, first compound 0.316 µM
[28] = second compound 1 µM, first compound 1 µM
[29] = second compound 1 µM, first compound 3.16 µM
[30] = second compound 1 µM, first compound 10 µM
[31] = second compound 3.16 µM, first compound 0.0316 µM
[32] = second compound 3.16 µM, first compound 0.1 µM
[33] = second compound 3.16 µM, first compound 0.316 µM
[34] = second compound 3.16 µM, first compound 1 µM
[35] = second compound 3.16 µM, first compound 3.16 µM
[36] = second compound 3.16 µM, first compound 10 µM
[37] = second compound 10 µM, first compound 0.0316 µM
[38] = second compound 10 µM, first compound 0.1 µM
[39] = second compound 10 µM, first compound 0.316 µM
[40] = second compound 10 µM, first compound 1 µM
[41] = second compound 10 µM, first compound 3.16 µM
[42] = second compound 10 µM, first compound 10 µM
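Note: spheroids exposed to agents for seven days before readout.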
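Throughout, for viability, T/C: percent of vehicle control viability where 100% = DMSO wells.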

Cc1cccc(N(C)C(=O)C2C(O)CCN2c2nc(C)cc(C(F)(F)F)c2C#N)c1 (configuration not stated)
viability, T/C (compound 0.0316 µM): 98.5% and 93% and 97.9% | viability, T/C (compound 0.1 µM): 93.8% and 90.7% and 89.8% | viability, T/C (compound 0.316 µM): 90.9% and 103% and 97% | viability, T/C (compound 1 µM): 92.1% and 105% and 93.5% | viability, T/C (compound 3.16 µM): 97.1% and 97.4% and 96.8% | viability, T/C (compound 10 µM): 95.8% and 104% and 89.9% | pIC50 (curve of compound): < 5.00

O=c1[nH]cc(F)c(=O)[nH]1 + Cc1[nH]c2ccc(F)cc2c1-c1nc2c3cccnc3c3ncccc3c2[nH]1
pIC50 [1]: < 5.00 | pIC50 [2]: < 5.00 | pIC50 [3]: < 5.00 | pIC50 [4]: < 5.00 | pIC50 [5]: > 7.50 | pIC50 [6]: < 5.00 | viability, T/C [7]: 101% | viability, T/C [8]: 103% | viability, T/C [9]: 98.5% | viability, T/C [10]: 95.9% | viability, T/C [11]: 97.1% | viability, T/C [12]: 86% | viability, T/C [13]: 103% | viability, T/C [14]: 89.3% | viability, T/C [15]: 91% | viability, T/C [16]: 93.5% | viability, T/C [17]: 93.7% | viability, T/C [18]: 86.3% | viability, T/C [19]: 107% | viability, T/C [20]: 94.7% | viability, T/C [21]: 81.6% | viability, T/C [22]: 82% | viability, T/C [23]: 97.5% | viability, T/C [24]: 95.6% | viability, T/C [25]: 76.4% | viability, T/C [26]: 74.7% | viability, T/C [27]: 75% | viability, T/C [28]: 70.7% | viability, T/C [29]: 68.3% | viability, T/C [30]: 69.9% | viability, T/C [31]: 39.2% | viability, T/C [32]: 42.6% | viability, T/C [33]: 41.3% | viability, T/C [34]: 41.6% | viability, T/C [35]: 45.1% | viability, T/C [36]: 42.3% | viability, T/C [37]: 66.1% | viability, T/C [38]: 77.2% | viability, T/C [39]: 70.3% | viability, T/C [40]: 71.3% | viability, T/C [41]: 81.3% | viability, T/C [42]: 62.9%

CN(C)c1ccc(Nc2c3ccc(NC(=O)CCN4CCCC4)cc3nc3cc(NC(=O)CCN4CCCC4)ccc23)cc1
viability, T/C (compound 0.0316 µM): 96.8% [middle of 12 runs] | viability, T/C (compound 0.1 µM): 97.9% [middle of 12 runs] | viability, T/C (compound 0.316 µM): 92.3% [middle of 12 runs] | viability, T/C (compound 1 µM): 79.7% [middle of 12 runs] | viability, T/C (compound 3.16 µM): 78.5% [middle of 12 runs] | viability, T/C (compound 10 µM): 84.1% [middle of 12 runs] | pIC50 (compound alone, run of 02/26/2024): < 5.00

C=CCn1c(=O)c2cnc(Nc3ccc(N4CCN(C)CC4)cc3)nc2n1-c1cccc(C(C)(C)O)n1
viability, T/C (compound 0.0316 µM): 90.4% and 95.2% and 93.1% | viability, T/C (compound 0.1 µM): 81.6% and 90.3% and 88.1% | viability, T/C (compound 0.316 µM): 68.6% and 78.2% and 86% | viability, T/C (compound 1 µM): 75.6% and 70.3% and 89.2% | viability, T/C (compound 3.16 µM): 65.7% and 58% and 84% | viability, T/C (compound 10 µM): 74.5% and 66.7% and 91.9% | pIC50 (curve of compound): < 5.00

CCCS(=O)(=O)Nc1ccc(F)c(C(=O)c2c[nH]c3ncc(-c4ccc(Cl)cc4)cc23)c1F
viability, T/C (compound 0.0316 µM): 98.5% and 105% and 90.7% | viability, T/C (compound 0.1 µM): 90.2% and 105% and 92.3% | viability, T/C (compound 0.316 µM): 111% and 124% and 116% | viability, T/C (compound 1 µM): 136% and 138% and 124% | viability, T/C (compound 3.16 µM): 148% and 137% and 134% | viability, T/C (compound 10 µM): 82% and 77.5% and 78.7% | pIC50 (curve of compound): < 5.00

O=C(NO)c1cnc(N2CCN(S(=O)(=O)c3ccc4ccccc4c3)CC2)nc1 + Cc1[nH]c2ccc(F)cc2c1-c1nc2c3cccnc3c3ncccc3c2[nH]1
pIC50 [1]: 6.06 | pIC50 [2]: 6.08 | pIC50 [3]: 6.05 | pIC50 [4]: 6.15 | pIC50 [5]: > 7.50 | pIC50 [6]: 6.10 | viability, T/C [7]: 101% | viability, T/C [8]: 96.9% | viability, T/C [9]: 108% | viability, T/C [10]: 42.3% | viability, T/C [11]: 2.03% | viability, T/C [12]: 0.22% | viability, T/C [13]: 101% | viability, T/C [14]: 106% | viability, T/C [15]: 82% | viability, T/C [16]: 47.1% | viability, T/C [17]: 2.38% | viability, T/C [18]: 0.21% | viability, T/C [19]: 90.7% | viability, T/C [20]: 83% | viability, T/C [21]: 95.6% | viability, T/C [22]: 45.7% | viability, T/C [23]: 3.31% | viability, T/C [24]: 0.18% | viability, T/C [25]: 69.2% | viability, T/C [26]: 55.7% | viability, T/C [27]: 94.9% | viability, T/C [28]: 39.9% | viability, T/C [29]: 2.39% | viability, T/C [30]: 0.24% | viability, T/C [31]: 14.8% | viability, T/C [32]: 18.3% | viability, T/C [33]: 31.6% | viability, T/C [34]: 22.1% | viability, T/C [35]: 1.99% | viability, T/C [36]: 0.22% | viability, T/C [37]: 66.2% | viability, T/C [38]: 65.6% | viability, T/C [39]: 74.6% | viability, T/C [40]: 45.5% | viability, T/C [41]: 3.66% | viability, T/C [42]: 0.26%

Reference: PubChem BioAssay AID2060502 (Molecular Pharmacology Branch, DTP, NCI, 2025)
